# Article PMC9413440, “An Iterative Approach Guides Discovery of the FabI Inhibitor Fabimycin, a Late-Stage Antibiotic Candidate with In Vivo Efficacy against Drug-Resistant Gram-Negative Infections” (ACS Central Science, 2022)
# Read-outs that look alike come from different tables or passages of the source.
# Columns and labels:
# [1] = test system: Bacteroides cellulosilyticus KLE 2342; assay: MIC, commensal bacteria; type: cell-based; settings: KLE2342
# Procedure: (§1) II. Materials and Methods for Biological Experiments
# (§2) S. aureus ATCC 29213 and E. coli MG1655 were obtained from the American Type Culture Collection (ATCC). E. coli BW25113 and E. coli JW5503 were obtained from the Keio Collection. AR-bank strains were obtained from the Centers for Disease Control and Prevention and FDA Antibiotic Resistance Isolate Bank.
# (§3) Antimicrobial susceptibility tests
# (§4) Susceptibility testing was performed in biological triplicate, unless noted otherwise, using the micro-dilution broth method as outlined by the Clinical and Laboratory Standards Institute. Bacteria were cultured with cation-adjusted Mueller Hinton broth (Sigma Aldrich, catalogue number: 90922). […]
# (§5) NH3: m/z 391.2 → 171.0. Fabimycin: m/z 405.3 → 145.3. Power analysis was not used to determine the number of replicates. Error bars represent the standard error of the mean of three biological replicates. All compounds evaluated in biological assays were ≥95% pure.
# [2] = test system: Faecalibacterium prausnitzii ATCC 27768; assay: MIC, commensal bacteria; type: cell-based; settings: ATCC27768
# Procedure: as §1, §2, §3, §4, §5
# [3] = test system: Lactobacillus reuteri ATCC 23272; assay: MIC, commensal bacteria; type: cell-based; settings: Limosilactobacillus reuteri, ATCC23272
# Procedure: as §1, §2, §3, §4, §5
# [4] = test system: Enterococcus faecalis KLE 2341; assay: MIC, commensal bacteria; type: cell-based; settings: KLE2341
# Procedure: as §1, §2, §3, §4, §5
# [5] = test system: Bifidobacterium longum ATCC BAA999; assay: MIC, commensal bacteria; type: cell-based; settings: ATCCBAA999
# Procedure: as §1, §2, §3, §4, §5
# [6] = test system: Streptococcus parasanguinis KLE 2375; assay: MIC, commensal bacteria; type: cell-based; settings: KLE2375
# Procedure: as §1, §2, §3, §4, §5
# [7] = test system: Blautia producta ATCC 27340; assay: MIC, commensal bacteria; type: cell-based; settings: ATCC27340
# Procedure: as §1, §2, §3, §4, §5
# [8] = test system: Bacteroides vulgatus KLE 2303; assay: MIC, commensal bacteria; type: cell-based; settings: Phocaeicola vulgatus, KLE2303
# Procedure: as §1, §2, §3, §4, §5
# E. coli MG1655 = assay: Serial passaging; type: cell-based, Escherichia coli; settings: E. coli MG1655, subinhibitory concentration, 21 days
# Procedure: Serial passaging procedure was done as reported in literature.5 Briefly, E. coli MG1655 cells were grown in 0.6 mL of MH media containing fabimycin and ciprofloxacin (control) at different concentrations. Cells were added to the respective compounds at 0.25X, 0.5X, 1X, 2X, and 4X to start. At 22-24 hours the cultures were checked for growth. […]
# compound at varying concentrations based off of the MIC. This serial passaging was repeated for 21 days. […]
# All cells were cultured […]
# at 37 °C under a 5% CO2 environment. Cell lines were authenticated by a commercial vendor and inspected visually in house. Cell lines were not tested for Mycoplasma contamination. The media was prepared by the University of Illinois School of Chemical Sciences Cell Media Facility.
# H. sapiens HFF-1, A549, and HepG2 cells were seeded (3,000-6,000 cells/well) in a 96-well plate (Greiner Bio-One;
# [9] = test system: K. pneumoniae clinical isolates (n=100); assay: MIC50/MIC90, clinical isolate panel; type: cell-based; settings: Klebsiella pneumoniae; K. pneumoniae (n=100) clinical isolates
# From the text: Figure 4 Antimicrobial activity of fabimycin against clinical isolates. (A) The susceptibility of clinical isolates (Gram-negative species and S. aureus) to fabimycin, Debio-1452-NH3, and Debio-1452. MICs performed in biological triplicate. (B) Further exploration of the breadth of fabimycin’s antibacterial activity against diverse clinical isolate panels of K. pneumoniae and A. baumannii, as compared to levofloxacin. MICs performed in biological duplicate.
# as §1, §2, §3, §4
# (§6) Error bars represent the standard error of the mean of three biological replicates. All compounds evaluated in biological assays were ≥95% pure.
# A. baumannii 19606 = assay: MIC, broth microdilution (CLSI); type: cell-based; settings: Acinetobacter baumannii
# How it was run: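 Broth microdilution per CLSI guidelines in cation-adjusted Mueller Hinton broth, run in biological triplicate unless noted otherwise.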
# Pseudomonas aeruginosa = assay: MIC, Pseudomonas aeruginosa strains; type: cell-based
# Procedure: as §1, §2, §3, §4, §6
# [10] = test system: Vancomycin-resistant Enterococcus (VRE); assay: MIC, vancomycin-resistant Enterococcus strains; type: cell-based
# Procedure: as §1, §2, §3, §4, §5
# [11] = test system: A. baumannii clinical isolates (n=100); assay: MIC50/MIC90, clinical isolate panel; type: cell-based; settings: Acinetobacter baumannii
# E. coli AR-0055 = assay: MIC against infective strain of UTI model; type: cell-based; settings: Escherichia coli, AR0055; extensively drug-resistant, carbapenem-resistant E. coli of the UTI model (AR-0055)
# Procedure: as §1, §2, §3, §4, §5
# S. aureus ATCC 29213 = type: cell-based, Staphylococcus aureus
# Procedure: Selection of resistant mutants
# Resistant mutants were generated using the large inoculum method. Briefly, S. aureus 29213, E. coli MG1655, and A. baumannii 19606 (~1 x 1010 CFUs) was plated on 100-mm plates (E. coli and A. baumannii) or 150-mm plates (S. aureus) of MH agar containing either 128, 64, or 32 µg/mL fabimycin (for gram-negatives) or 0.125, 0.062, and 0.031 µg/mL fabimycin (for S. aureus). Plates were incubated at 37 °C for 48 h and counted for the presence of colony forming units.
# Glycerol stocks of selected colonies were made, and resistant colonies confirmed by growing on agar plates containing the same concentration of fabimycin that they were generated at. […]
# Forward 5’-GGG-GCC-AGC-GTT-TCT-TTT-TC-3‘ Parker, 20203
# Reverse 5’-AAA-CAT-GGA-GAC-GGT-GCT-GG
# Forward 5’-GTG-AGA-TCG-GCA-TGA-CAC-AA-3’ Lin, 20179
# Reverse 5’-CTG-AAG-TCC-GCT-ACC-GTT-AT-3’
# Compound stability in mammalian plasma […]
# Each drug is tested […]
# in duplicate. Compounds were diluted from 10 mM DMSO stocks to 1 µM in a 100 mM pH 7.4 phosphate buffer and incubated at 37 °C with 0.5 mg/mL of human, rat, or mouse plasma (BioreclamationIVT, Baltimore, MD). […]
# Compound plasma protein binding […]
# The standard assay involves equilibrium dialysis, in which compound is allowed to equilibrate between a protein-containing compartment from a protein-free compartment. Each
# [12] = A. baumannii (n=100) clinical isolates
smiles,measurement,setting,value
Cc1c(CN(C)C(=O)/C=C/c2cnc3c(c2)CC[C@H](N)C(=O)N3)oc2ccccc12 [fabimycin],MIC,[1],> 128 mg/L
same,MIC,[2],> 128 mg/L
same,MIC,[3],64 mg/L
same,MIC,[4],> 128 mg/L
same,MIC,[5],> 128 mg/L
same,MIC,[6],128 mg/L
same,MIC,[7],> 128 mg/L
same,MIC,[8],> 128 mg/L
same,increase in the MIC after serial passaging,E. coli MG1655,8 fold
same,MIC50,[9],1 mg/L
same,MIC90,[9],4 mg/L
same,MIC,A. baumannii 19606,2 mg/L
same,MIC,Pseudomonas aeruginosa; P. aeruginosa AR-0229,>128 mg/L
same,MIC,Pseudomonas aeruginosa; P. aeruginosa AR-0230,>128 mg/L
same,MIC,Pseudomonas aeruginosa; P. aeruginosa AR-0231,>128 mg/L
same,MIC,Pseudomonas aeruginosa; P. aeruginosa AR-0233,>128 mg/L
same,MIC,Pseudomonas aeruginosa; P. aeruginosa AR-0234,>128 mg/L
same,MIC,Pseudomonas aeruginosa; P. aeruginosa AR-0235,>128 mg/L
same,MIC,Pseudomonas aeruginosa; P. aeruginosa AR-0609,>128 mg/L
same,MIC,Pseudomonas aeruginosa; P. aeruginosa AR-0610,>128 mg/L
same,MIC,"Pseudomonas aeruginosa; Pseudomonas aeruginosa, ATCC27853, P. aeruginosa ATCC 27853, read-out: MIC",> 128 mg/L
same,MIC,"Pseudomonas aeruginosa; Pseudomonas aeruginosa, P. aeruginosa AR-0232, read-out: MIC",> 128 mg/L
same,MIC,[10]; ATCC 1593 / VRE,128 mg/L
same,MIC,[10]; ATCC 1768 / VRE,> 128 mg/L
same,MIC,"[10]; ATCC 2059 / VRE, VRE ATCC 2059, read-out: MIC",64 mg/L
same,MIC,[10]; ATCC 2431 / VRE,> 128 mg/L
same,MIC,[10]; ATCC 2574 / VRE,> 128 mg/L
same,MIC,"[10]; ATCC 3053 / VRE, VRE ATCC 3053, read-out: MIC",64 mg/L
same,MIC,"[10]; ATCC 3183 / VRE, VRE ATCC 3183, read-out: MIC",64 mg/L
same,MIC,[10]; ATCC 3190 / VRE,> 128 mg/L
same,MIC,[10]; ATCC 3191 / VRE,128 mg/L
same,MIC,[10]; ATCC 29212 / VRE,128 mg/L
same,MIC50,[11]; [12],4 mg/L
same,MIC90,[11]; [12],8 mg/L
same,MIC,[11]; the 1 pan-resistant strain of the 100 A. baumannii clinical isolates,1 mg/L
same,MIC,E. coli AR-0055,2 mg/L
same,frequency of resistance,S. aureus ATCC 29213,1.8 × 10^–10 to 5.2 × 10^–10
same,mutant prevention concentration (MPC),S. aureus ATCC 29213,0.125 µg/mL
